According to patent US12559492B2, “BRAF degraders” (C4 Therapeutics, Inc., priority 2020, dated 2026):

Target: BRAF^V600E protein (Homo sapiens, UniProt P15056, V600E)
Assay: HiBiT cellular BRAF V600E degradation assay
Format: cell-based
Details: 24 h incubation; for DC50: A375.10 cells (HiBiT tag knocked in at N-terminal of BRAF V600E), concentration at which 50% of total cellular BRAF V600E is degraded; for Emax / HiBit 24 h Emax: A375.10 cells, Emax = amount of residual protein remaining in the cell after compound treatment; for Emax: read-out: HiBit 24 h Emax

BRAF^V600E protein, sequence (P15056 whole entry V600E): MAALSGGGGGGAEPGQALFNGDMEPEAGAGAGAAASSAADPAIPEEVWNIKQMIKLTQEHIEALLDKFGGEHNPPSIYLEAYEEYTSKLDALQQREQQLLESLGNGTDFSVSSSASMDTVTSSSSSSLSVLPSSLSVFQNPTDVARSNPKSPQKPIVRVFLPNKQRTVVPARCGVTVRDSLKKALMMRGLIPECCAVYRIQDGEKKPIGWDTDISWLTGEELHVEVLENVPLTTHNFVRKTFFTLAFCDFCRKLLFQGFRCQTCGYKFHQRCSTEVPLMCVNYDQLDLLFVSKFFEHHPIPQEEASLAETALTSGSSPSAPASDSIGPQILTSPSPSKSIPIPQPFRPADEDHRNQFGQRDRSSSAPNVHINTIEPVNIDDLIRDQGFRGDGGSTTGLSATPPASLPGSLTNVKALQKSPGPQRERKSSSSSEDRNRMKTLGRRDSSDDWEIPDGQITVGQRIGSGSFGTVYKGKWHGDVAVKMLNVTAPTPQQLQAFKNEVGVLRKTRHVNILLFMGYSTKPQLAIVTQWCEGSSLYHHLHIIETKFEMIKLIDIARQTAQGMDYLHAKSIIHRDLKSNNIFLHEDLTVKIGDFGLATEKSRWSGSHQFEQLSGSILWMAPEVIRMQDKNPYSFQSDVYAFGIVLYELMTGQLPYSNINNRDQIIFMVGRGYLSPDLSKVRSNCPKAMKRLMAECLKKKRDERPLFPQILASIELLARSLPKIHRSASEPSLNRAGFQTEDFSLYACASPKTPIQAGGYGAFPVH

For CCN(C)S(=O)(=O)Nc1ccc(F)c(C(=O)c2c[nH]c3ncc(-c4ccc(N5CCN(C(=O)CC6(O)CCN(c7ncc(NC8CCC(=O)NC8=O)cc7F)CC6)CC5)nc4)cc23)c1F (stereo not shown) [Example 80, 5-[6-[4-[2-[1-[5-[(2,6-dioxo-3-piperidyl)amino]-3-fluoro-2-pyridyl]-4-hydroxy-4-piperidyl]acetyl]piperazin-1-yl]-3-pyridyl]-3-[3-[[ethyl(methyl)sulfamoyl]amino]-2,6-difluoro-benzoyl]-1H-pyrrolo[2,3-b]pyridine], the DC50 was 2.97 nM and the Emax was 9.93%.

O=C1CCC(Nc2ccc(C3CCN(C(=O)NC4CCN(Cc5ccc(-c6cnc7[nH]cc(C(=O)c8c(F)ccc(NS(=O)(=O)N9CCCC9)c8F)c7c6)cc5)CC4)CC3)cc2)C(=O)N1 (stereo not shown) [Example A53, N-[1-[[4-[3-[2,6-Difluoro-3-(pyrrolidin-1-ylsulfonylamino)benzoyl]-1H-pyrrolo[2,3-b]pyridin-5-yl]phenyl]methyl]piperidin-4-yl]-4-[4-[(2,6-dioxopiperidin-3-yl)amino]phenyl]piperidine-1-carboxamide;formic acid] gave a DC50 of 27 nM and an Emax of 22%.

CCN(C)S(=O)(=O)Nc1ccc(F)c(C(=O)c2c[nH]c3ncc(-c4ccc(N5CCN(C(=O)CN6CCC(c7ccc(O[C@@H]8CCC(=O)NC8=O)cc7)CC6)CC5)nc4)cc23)c1F [Example A122, 5-[6-[4-[2-[4-[4-[(3R)-2,6-Dioxopiperidin-3-yl]oxyphenyl]piperidin-1-yl]acetyl]piperazin-1-yl]pyridin-3-yl]-3-[3-[[ethyl(methyl)sulfamoyl]amino]-2,6-difluorobenzoyl]-1H-pyrrolo[2,3-b]pyridine] gave a DC50 of 32 nM and an Emax of 9%.

For CCN(C)S(=O)(=O)Nc1ccc(F)c(C(=O)c2c[nH]c3ncc(-c4ccc(CN5CCC(C(=O)N6CCC(c7ccc(OC8CCC(=O)NC8=O)cc7)CC6)C5)cc4)cc23)c1F (stereo not shown) [Example A20, 5-[4-[[3-[4-[4-(2,6-Dioxopiperidin-3-yl)oxyphenyl]piperidine-1-carbonyl]pyrrolidin-1-yl]methyl]phenyl]-3-[3-[[ethyl(methyl)sulfamoyl]amino]-2,6-difluorobenzoyl]-1H-pyrrolo[2,3-b]pyridine], the DC50 was 138 nM and the Emax was 24%.

Compound CCN(C)S(=O)(=O)Nc1ccc(F)c(C(=O)c2c[nH]c3ncc(-c4cnc(N5CCC(n6cc7c(n6)CN(c6ccc(NC8CCC(=O)NC8=O)cc6)CC7)CC5)nc4)cc23)c1F (stereo not shown) [Example 161, 6-[4-[(2,6-dioxo-3-piperidyl)amino]phenyl]-2-[1-[5-[3-[3-[[ethyl(methyl)sulfamoyl]amino]-2,6-difluoro-benzoyl]-1H-pyrrolo[2,3-b]pyridin-5-yl]pyrimidin-2-yl]-4-piperidyl]-5,7-dihydro-4H-pyrazolo[3,4-c]pyridine] has a DC50 of 14.6 nM and an Emax of 8.46%.

Compound CCN(C)S(=O)(=O)Nc1ccc(F)c(C(=O)c2c[nH]c3ncc(-c4ccc(N5CCN(C(=O)CC6(O)CCN(c7ccc(N8CCC(=O)NC8=O)cc7F)CC6)CC5)nc4)cc23)c1F [Example 168, 5-[6-[4-[2-[1-[4-(2,4-dioxohexahydropyrimidin-1-yl)-2-fluoro-phenyl]-4-hydroxy-4-piperidyl]acetyl]piperazin-1-yl]-3-pyridyl]-3-[3-[[ethyl(methyl)sulfamoyl]amino]-2,6-difluoro-benzoyl]-1H-pyrrolo[2,3-b]pyridine] has a DC50 of 3 nM and an Emax of 10.2%.

With CCN(C)S(=O)(=O)Nc1ccc(F)c(C(=O)c2c[nH]c3ncc(-c4ccc(N5CCC(NC(=O)CN6CCC(c7ccc(NC8CCC(=O)NC8=O)cc7)CC6)CC5)cc4)cc23)c1F.O=CO (stereo not shown) [Example A67, 2-[4-[4-[(2,6-Dioxopiperidin-3-yl)amino]phenyl]piperidin-1-yl]-N-[1-[4-[3-[3-[[ethyl(methyl)sulfamoyl]amino]-2,6-difluorobenzoyl]-1H-pyrrolo[2,3-b]pyridin-5-yl]phenyl]piperidin-4-yl]acetamide; formic acid] the DC50 (formic acid) was 7 nM and the “HiBit 24 h Emax” value (formic acid) was 11%.

Compound CCN(C)S(=O)(=O)Nc1ccc(F)c(C(=O)c2c[nH]c3ncc(-c4cnc(N5CC6(C5)CN(C5CCN(c7ccc(NC8CCC(=O)NC8=O)cc7F)CC5)C6)nc4)cc23)c1F (stereo not shown) [Example 203, 5-[2-[2-[1-[4-[(2,6-dioxo-3-piperidyl)amino]-2-fluoro-phenyl]-4-piperidyl]-2,6-diazaspiro[3.3]heptan-6-yl]pyrimidin-5-yl]-3-[3-[[ethyl(methyl)sulfamoyl]amino]-2,6-difluoro-benzoyl]-1H-pyrrolo[2,3-b]pyridine] has a DC50 of 2.28 nM and an Emax of 5.13%.

CCN(C)S(=O)(=O)Nc1ccc(F)c(C(=O)c2c[nH]c3ncc(-c4ccc(N5CCN(C(=O)CC6(O)CCN(c7ccc(NC8CCC(=O)NC8=O)cc7C(F)F)CC6)CC5)nc4)cc23)c1F (stereo not shown) [Example 197, 5-[6-[4-[2-[1-[2-(difluoromethyl)-4-[(2,6-dioxo-3-piperidyl)amino]phenyl]-4-hydroxy-4-piperidyl]acetyl]piperazin-1-yl]-3-pyridyl]-3-[3-[[ethyl(methyl)sulfamoyl]amino]-2,6-difluoro-benzoyl]-1H-pyrrolo[2,3-b]pyridine] showed a DC50 of 7.36 nM and an Emax of 8.11%.

With CCN(C)S(=O)(=O)Nc1ccc(F)c(C(=O)c2c[nH]c3ncc(-c4cnc(N5CCN(C(=O)CC6(O)CCN(c7ccc(NC8CCC(=O)NC8=O)cc7F)CC6)CC5)c(F)c4)cc23)c1F (stereo not shown) [Example 188, 5-[6-[4-[2-[1-[4-[(2,6-dioxo-3-piperidyl)amino]-2-fluoro-phenyl]-4-hydroxy-4-piperidyl]acetyl]piperazin-1-yl]-5-fluoro-3-pyridyl]-3-[3-[[ethyl(methyl)sulfamoyl]amino]-2,6-difluoro-benzoyl]-1H-pyrrolo[2,3-b]pyridine] the DC50 was 4.5 nM and the Emax was 5.98%.

With CCN(C)S(=O)(=O)Nc1cccc(C(=O)c2c[nH]c3ncc(-c4ccc(N5CCN(C(=O)CC6(O)CCN(c7ccc(NC8CCC(=O)NC8=O)cn7)CC6)CC5)nc4)cc23)c1F (stereo not shown) [Example 113, 5-[6-[4-[2-[1-[5-[(2,6-dioxo-3-piperidyl)amino]-2-pyridyl]-4-hydroxy-4-piperidyl]acetyl]piperazin-1-yl]-3-pyridyl]-3-[3-[[ethyl(methyl)sulfamoyl]amino]-2-fluoro-benzoyl]-1H-pyrrolo[2,3-b]pyridine] the DC50 was 26.3 nM and the Emax was 27.7%.

With CCN(C)S(=O)(=O)Nc1cccc(C(=O)c2c[nH]c3ncc(-c4ccc(N5CCN(C(=O)CC6(O)CCN(c7ccc(NC8CCC(=O)NC8=O)cc7F)C6)CC5)cc4)cc23)c1F (stereo not shown) [Example 118, 5-[4-[4-[2-[1-[4-[(2,6-dioxo-3-piperidyl)amino]-2-fluoro-phenyl]-3-hydroxy-pyrrolidin-3-yl]acetyl]piperazin-1-yl]phenyl]-3-[3-[[ethyl(methyl)sulfamoyl]amino]-2-fluoro-benzoyl]-1H-pyrrolo[2,3-b]pyridine] the DC50 was 27.2 nM and the Emax was 13.4%.

For CCN(C)S(=O)(=O)Nc1ccc(F)c(C(=O)c2c[nH]c3ncc(-c4cnc(N5CCC(C(=O)N6CCC(c7ccc(NC8CCC(=O)NC8=O)cc7)CC6)CC5)nc4)cc23)c1F (stereo not shown) [Example A94, 5-[2-[4-[4-[4-[(2,6-Dioxopiperidin-3-yl)amino]phenyl]piperidine-1-carbonyl]piperidin-1-yl]pyrimidin-5-yl]-3-[3-[[ethyl(methyl)sulfamoyl]amino]-2,6-difluorobenzoyl]-1H-pyrrolo[2,3-b]pyridine], the DC50 was 13 nM and the “HiBit 24 h Emax” value was 8%.

For CCN(C)S(=O)(=O)Nc1ccc(F)c(C(=O)c2c[nH]c3ncc(-c4ccc(N5CCN(C(=O)CN6CCC(c7ccc(NC8CCC(=O)NC8=O)cc7)CC6)CC5)cc4)cc23)c1F (stereo not shown) [Example A36, 5-[4-[4-[2-[4-[4-[(2,6-Dioxopiperidin-3-yl)amino]phenyl]piperidin-1-yl]acetyl]piperazin-1-yl]phenyl]-3-[3-[[ethyl(methyl)sulfamoyl]amino]-2,6-difluorobenzoyl]-1H-pyrrolo[2,3-b]pyridine], the DC50 was 3 nM and the Emax was 10%.

CCN(C)S(=O)(=O)Nc1ccc(F)c(C(=O)c2c[nH]c3ncc(-c4ccc(CN5CCN(C(=O)CN6CCN(c7ccc(NC8CCC(=O)NC8=O)cc7)CC6)CC5)nc4)cc23)c1F (stereo not shown) [Example A12, 5-[6-[[4-[2-[4-[4-[(2,6-Dioxopiperidin-3-yl)amino]phenyl]piperazin-1-yl]acetyl]piperazin-1-yl]methyl]pyridin-3-yl]-3-[3-[[ethyl(methyl)sulfamoyl]amino]-2,6-difluorobenzoyl]-1H-pyrrolo[2,3-b]pyridine] was tested, and the DC50 was 74 nM and the Emax was 24%.

For CCN(C)S(=O)(=O)Nc1ccc(F)c(C(=O)c2c[nH]c3ncc(-c4ccc(N5CCN(C(=O)CC6(O)CCN(c7ccc(NC8CCC(=O)NC8=O)cn7)CC6)CC5)nc4)cc23)c1F (stereo not shown) [Example 78, 5-[6-[4-[2-[1-[5-[(2,6-dioxo-3-piperidyl)amino]-2-pyridyl]-4-hydroxy-4-piperidyl]acetyl]piperazin-1-yl]-3-pyridyl]-3-[3-[[ethyl(methyl)sulfamoyl]amino]-2,6-difluoro-benzoyl]-1H-pyrrolo[2,3-b]pyridine], the DC50 was 9.89 nM and the Emax was 23.3%.

In the case of CCN(C)S(=O)(=O)Nc1ccc(F)c(C(=O)c2c[nH]c3ncc(-c4ccc(N5CCN(C(=O)CN6CCN(c7ccc(NC8CCC(=O)NC8=O)cc7)CC6)CC5)nc4)cc23)c1F (stereo not shown) [Example A11, 5-[6-[4-[2-[4-[4-[(2,6-Dioxopiperidin-3-yl)amino]phenyl]piperazin-1-yl]acetyl]piperazin-1-yl]pyridin-3-yl]-3-[3-[[ethyl(methyl)sulfamoyl]amino]-2,6-difluorobenzoyl]-1H-pyrrolo[2,3-b]pyridine], the DC50 is reported as 6.71 nM and the Emax is reported as 11.6%.
